Data set [1] addresses T1, P2Y purinoceptor 12 (Homo sapiens, UniProt Q9H244). Briefly: Displacement of [3H]2MeSADP from P2Y12 receptor in human platelets after 60 mins by TopCount scintillation counting method. For orientation: Displacement assays read how much labelled ligand stays bound in the presence of the test substance.
For data set [2], the target named is T1, P2Y purinoceptor 12. The data set can be described thus: Competitive/reversible antagonist activity at P2Y12 receptor in platelets (unknown origin) assessed as inhibition of ADP-induced platelet aggregation. The data set is classed as functional.
Data set [3] can be described thus: Cmax in Sprague-Dawley rat at 2 mg/kg, po via gavage. The data set is classed as ADME, organism-based. The arrangement: dose 2 mg/kg, route oral. To be noted: in vivo.
A short description of data set [4]: Plasma concentration in Sprague-Dawley rat at 2 mg/kg, po via gavage after 3 hrs using sample obtained from jugular vein. The format is ADME, organism-based.
Data set [5] can be described thus: Permeability in human Caco2 cells. The format is ADME, cell-based. The conditions noted are these: Caco-2, read-out: permeability.
Data set [6] is described as follows: Metabolic stability in human liver microsomes assessed as parent compound remaining at 3000 nM. The data set is classed as ADME, microsome. The conditions noted are these: read-out: Stability. (In general: Liver microsomes are a subcellular fraction often used to study metabolism.)
The nature of data set [7]: Plasma concentration in Sprague-Dawley rat at 2 mg/kg, po via gavage after 1 hr using sample obtained from portal vein. The format is ADME, organism-based.
The nature of data set [8]: Half life in Sprague-Dawley rat at 2 mg/kg, po via gavage. The data set is classed as ADME, organism-based. The conditions noted are these: in vivo.
Data set [9] is described as follows: Plasma concentration in Sprague-Dawley rat at 2 mg/kg, po via gavage after 1 hr using sample obtained from jugular vein. The format is ADME, organism-based.
Data set [10] in a line: Metabolic stability in rat liver microsomes assessed as parent compound remaining at 3000 nM. The data set is classed as ADME, microsome. To be noted: read-out: Stability.
Data set [11] can be described thus: Plasma concentration in Sprague-Dawley rat at 2 mg/kg, po via gavage after 3 hrs using sample obtained from portal vein. The data set is classed as ADME, organism-based.
The nature of data set [12]: Metabolic stability in dog liver microsomes assessed as parent compound remaining at 3000 nM. To be noted: read-out: Stability. The data set is classed as ADME, Canis lupus familiaris, microsome.
The nature of data set [13]: Oral bioavailability in Sprague-Dawley rat at 2 mg/kg via gavage. The format is ADME, organism-based. The conditions noted are these: in vivo.

T1 sequence (Q9H244 whole entry): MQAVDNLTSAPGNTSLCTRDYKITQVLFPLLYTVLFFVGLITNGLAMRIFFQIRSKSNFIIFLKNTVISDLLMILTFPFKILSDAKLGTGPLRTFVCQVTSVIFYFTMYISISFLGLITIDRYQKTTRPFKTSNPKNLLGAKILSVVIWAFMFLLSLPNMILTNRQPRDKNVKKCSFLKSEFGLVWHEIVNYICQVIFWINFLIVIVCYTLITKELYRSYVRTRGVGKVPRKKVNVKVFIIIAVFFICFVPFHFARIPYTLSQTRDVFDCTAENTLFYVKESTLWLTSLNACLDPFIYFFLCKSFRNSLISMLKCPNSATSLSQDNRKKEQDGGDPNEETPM

In general, IC50 refers to the concentration that gives 50% inhibition. A higher IC50 goes with weaker potency. At P2Y purinoceptor 12 [1], `CCOC(=O)N1CCN(C(=O)[C@H](COCC(=O)O)NC(=O)c2cc(OC)c3ccccc3n2)CC1` gave a half-inhibitory concentration (IC50) of 200 nM. The same measure, in the same setting: the figure for `CCOC(=O)N1CCN(C(=O)[C@H](C)NC(=O)c2cc(OC)c3ccccc3n2)CC1` is 1900 nM; for `CCOC(=O)N1CCN(C(=O)[C@H](CC(N)=O)NC(=O)c2cc(OC)c3ccccc3n2)CC1` it is 2100 nM. Still for that read-out and setting: in the case of `CCc1ccc(C(=O)N2CCN(C(=O)CNC(=O)c3cc(OC)c4ccccc4n3)CC2)cc1` it was 1800 nM; in that of `CCOC(=O)N1CCN(C(=O)CNC(=O)c2cc(OC)c3ccccc3n2)C[C@H]1C`, 4300 nM. On P2Y purinoceptor 12 [1], `CCCOc1cc(C(=O)NCC(=O)N2CCN(C(=O)OCC)CC2)nc2ccccc12` registered an IC50 of 520 nM. On the same count and under the same terms, the figure for `CCCCCC(=O)N1CCN(C(=O)CNC(=O)c2cc(OC)c3ccccc3n2)CC1` is 1200 nM. Same read-out and setting: the figure for `CCOC(=O)N1CCN(C(=O)[C@H](Cc2cnc[nH]2)NC(=O)c2cc(OC)c3ccccc3n2)CC1` is 1500 nM. Turning to `CCOC(=O)N1CCN(C(=O)CN(C)C(=O)c2cc(OC)c3ccccc3n2)CC1`, the 50% inhibitory concentration (IC50) at P2Y purinoceptor 12 [1] was 21000 nM. `COC(=O)N1CCN(C(=O)CNC(=O)c2cc(OC)c3ccccc3n2)CC1` had an IC50 at P2Y purinoceptor 12 [1] greater than 3000 nM.

At P2Y purinoceptor 12 [1], `CCOC(=O)N1CCN(C(=O)[C@@H](NC(=O)c2cc(OC)c3ccccc3n2)C(C)C)CC1` showed an IC50 of 1500 nM. Turning to `CCOC(=O)N1CCN(C(=O)CNC(=O)c2cc(OC)c3ccccc3n2)C[C@@H]1C`, at P2Y purinoceptor 12 [1], the half-inhibitory concentration (IC50) is 1700 nM. This IC50 and that of the compound before are within 1.5-fold of each other.

In turn, `CCOC(=O)N1CCN(C(=O)[C@H](CCCCN)NC(=O)c2cc(OC)c3ccccc3n2)CC1` showed an IC50 on P2Y purinoceptor 12 [1] of 26000 nM.

At P2Y purinoceptor 12 [1], `CCOC(=O)N1CCN(C(=O)[C@H](CC(=O)NCC(=O)O)NC(=O)c2cc(OC)c3ccccc3n2)CC1` showed a half-maximal inhibitory concentration (IC50) of 1100 nM. For the compound `CCOC(=O)N1CCN(C(=O)[C@@H](CSCC(=O)O)NC(=O)c2cc(OC)c3ccccc3n2)CC1`, the concentration for half-maximal inhibition (IC50) at P2Y purinoceptor 12 [1] amounted to 190 nM. On the same count and under the same terms, in the case of `COc1cc(C(=O)NCC(=O)N2CCN(c3cccc(C)c3)CC2)nc2ccccc12` it was 890 nM; in that of `CCOC(=O)N1CCN(C(=O)CNC(=O)c2cc(OCc3ccccc3)c3ccccc3n2)CC1`, greater than 3000 nM.

With `CCOC(=O)N1CCN(C(=O)[C@@H](CCC(=O)O)NC(=O)c2cc(OC)c3ccccc3n2)CC1`, at P2Y purinoceptor 12 [1], the IC50 amounted to 22000 nM.

What is called Kb is the equilibrium dissociation constant of an antagonist, usually derived from a functional assay. In general, Cmax refers to the peak of the concentration-time curve. The term half-life denotes the time in which the quantity being followed falls by half. As to `CCOC(=O)N1CCN(C(=O)[C@H](CCC(=O)O)NC(=O)c2cc(OC)c3ccccc3n2)CC1`, the Kb on P2Y purinoceptor 12 [2] turned out to be 94 nM. In [3], this compound displayed a Cmax of 120 nM. In addition, the concentration at 3 h stood at 100 nM in data set [4] and 340 nM in [11]. Moreover, in [5], the Papp was 0.166 ×10⁻⁶ cm/s. Also, the remaining at 3 µM in data set [6], in [10] and in [12] was greater than 90% throughout. For the same compound, the figures for the concentration at 1 h in [7] and in data set [9] were 340 nM and 120 nM, respectively. For the same compound, the IC50 on P2Y purinoceptor 12 [1] worked out at 86 nM. In [8], this compound showed a half-life of 1.2 h. Take `CCOC(=O)N1CCN(C(=O)CNC(=O)C=C2c3ccccc3-c3ccccc32)CC1`: the Cmax in [3] is 2700 nM. The same compound came in with a concentration for half-maximal inhibition (IC50) on P2Y purinoceptor 12 [1] of 860 nM. Turning to `CCOC(=O)N1CCN(C(=O)[C@@H](CC(=O)O)NC(=O)c2cc(OC)c3ccccc3n2)CC1`, the IC50 on P2Y purinoceptor 12 [1] was 18000 nM. `CCOC(=O)N1CCN(C(=O)CNC(=O)c2cc(OC)c3ccccc3n2)[C@H](C)C1` gave an IC50 at P2Y purinoceptor 12 [1] of 4500 nM. Still for that read-out and setting: in the case of `COc1cc(C(=O)NCC(=O)N2CCN(C(=O)NC(C)(C)C)CC2)nc2ccccc12` it was 910 nM; in that of `CCOC(=O)N1CCN(C(=O)[C@@H](C)NC(=O)c2cc(OC)c3ccccc3n2)CC1`, 14000 nM. Regarding `CCOC(=O)N1CCN(C(=O)CNC(=O)c2ccc3ccccc3c2)CC1`, the Cmax in [3] was determined as 1500 nM. The compound also displayed an IC50 at P2Y purinoceptor 12 [1] of 1800 nM. On to `CCOC(=O)N1CCN(C(=O)[C@H](CCC(N)=O)NC(=O)c2cc(OC)c3ccccc3n2)CC1`, for which the half-maximal inhibitory concentration (IC50) at P2Y purinoceptor 12 [1] came out at 2500 nM. That is a single-digit micromolar value. The term bioavailability denotes the share of a dose that reaches the circulation, judged against a reference dose that is usually intravenous. The low end stands for poor availability, the high end for good availability. Turning to `CCOC(=O)N1CCN(C(=O)CNC(=O)c2cc(OC)c3ccccc3n2)CC1`, the concentration in [3] peaked (Cmax) at 1200 nM. The compound further came in with an IC50 on P2Y purinoceptor 12 [1] of 690 nM. In data set [13], the bioavailability is 42%. At P2Y purinoceptor 12 [1], `CCOC(=O)N1CCN(C(=O)[C@H](CO)NC(=O)c2cc(OC)c3ccccc3n2)CC1` showed an IC50 of 1100 nM. As to `CCOC(=O)N1CCN(C(=O)[C@H](Cc2c[nH]c3ccccc23)NC(=O)c2cc(OC)c3ccccc3n2)CC1`, at P2Y purinoceptor 12 [1], the IC50 came out at 7900 nM. This IC50 is about 7.2-fold higher than that of the compound before. Consider `CCOC(=O)N1CCN(C(=O)[C@H](CC(=O)O)NC(=O)c2cc(OC)c3ccccc3n2)CC1`, for which the concentration at 3 h in [4] amounted to 200 nM; in data set [11], 380 nM. The results for the concentration at 1 h in [7] and in data set [9] were 410 nM and 270 nM, respectively. This compound also returned an IC50 at P2Y purinoceptor 12 [1] of 150 nM. `CCOC(=O)N1CCN(C(=O)[C@H](Cc2ccccc2)NC(=O)c2cc(OC)c3ccccc3n2)CC1` displayed an IC50 at P2Y purinoceptor 12 [1] of 8600 nM.

Turning to `CCOC(=O)N1CCN(C(=O)CNC(=O)c2cc(OCC)c3ccccc3n2)CC1`, at P2Y purinoceptor 12 [1], the IC50 turned out to be 840 nM. Still for that read-out and setting: in the case of `CCOC(=O)N1CCN(C(=O)CNC(=O)c2cc(O)c3ccccc3n2)CC1` it was greater than 2000 nM; in that of `CCOC(=O)N1CCN(C(=O)CNC(=O)c2cc(OC)c3ccccc3n2)[C@@H](C)C1`, 1100 nM.

Take `CCOC(=O)N1CCN(C(=O)[C@H](CCCC(=O)O)NC(=O)c2cc(OC)c3ccccc3n2)CC1`: the half-maximal inhibitory concentration (IC50) at P2Y purinoceptor 12 [1] came out at 270 nM.

(Values after ChEMBL document CHEMBL4219207, “Reversible, orally available ADP receptor (P2Y12) antagonists Part I: Hit to lead process” (Bioorg Med Chem Lett, 2018).)
